Some results are limits rather than exact numbers.

The experiment deals with T1, human PAH with the R408W mutation (Homo sapiens, UniProt P00439, R408W).
T1 construct: expressed in transfected cells
T1 sequence (P00439 1-452 R408W): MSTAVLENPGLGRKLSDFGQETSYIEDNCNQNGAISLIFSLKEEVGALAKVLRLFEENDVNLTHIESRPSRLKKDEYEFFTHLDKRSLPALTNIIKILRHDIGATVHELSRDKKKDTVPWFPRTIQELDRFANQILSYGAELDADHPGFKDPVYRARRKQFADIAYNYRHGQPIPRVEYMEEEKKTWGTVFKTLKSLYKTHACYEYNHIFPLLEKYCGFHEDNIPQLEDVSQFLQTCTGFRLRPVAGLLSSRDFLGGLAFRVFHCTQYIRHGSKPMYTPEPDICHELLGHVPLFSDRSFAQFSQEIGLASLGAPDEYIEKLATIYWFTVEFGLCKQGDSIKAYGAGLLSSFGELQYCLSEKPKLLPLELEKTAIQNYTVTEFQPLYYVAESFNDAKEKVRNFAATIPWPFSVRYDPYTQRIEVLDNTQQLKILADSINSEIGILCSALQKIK
Put plainly: Cell Based Phenylalanine Flux Assay.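 Further: after compound treatment, cells received sepiapterin plus isotope-labelled Phenylalanine for 4 hours, then labelled Tyrosine in the medium was quantified, 10-point 2-fold dilution series run in duplicate.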 The following applies: A375 cells expressing human PAH R408W; 24 hrs compound incubation; 13C-Tyrosine by LC-MS; average where tested multiple times; read-out: AC50.

Turning to `CCc1cccn2nc([C@H]3c4nc[nH]c4CCN3C(=O)c3nnc(C4CC4)o3)cc12` [Example 1874, (R)-(5-cyclopropyl-1,3,4-oxadiazol-2-yl)(4-(4-ethylpyrazolo[1,5-a]pyridin-2-yl)-1,4,6,7-tetrahydro-5H-imidazo[4,5-c]pyridin-5-yl)methanone], the AC50 (usually the concentration giving half of the maximal activity seen) is more than 5000 nM.

In the case of `CCc1cccn2nc([C@@H]3c4nc[nH]c4CCN3C(=O)c3nnc(C4CC4)o3)cc12` [Example 1875, (S)-(5-cyclopropyl-1,3,4-oxadiazol-2-yl)(4-(4-ethylpyrazolo[1,5-a]pyridin-2-yl)-1,4,6,7-tetrahydro-5H-imidazo[4,5-c]pyridin-5-yl)methanone], the AC50 was less than 500 nM.

On to `Cn1cc(-c2nnc(C(=O)N3CCc4[nH]cnc4[C@H]3c3cc4c(C5CC5)cccn4n3)o2)cn1` [Example 1876, (S)-(4-(4-cyclopropylpyrazolo[1,5-a]pyridin-2-yl)-1,4,6,7-tetrahydro-5H-imidazo[4,5-c]pyridin-5-yl)(5-(1-methyl-1H-pyrazol-4-yl)-1,3,4-oxadiazol-2-yl)methanone], for which the AC50 is 500 to 1000 nM.

As to `Cn1cc(-c2nnc(C(=O)N3CCc4[nH]cnc4[C@@H]3c3cc4c(C5CC5)cccn4n3)o2)cn1` [Example 1877, (R)-(4-(4-cyclopropylpyrazolo[1,5-a]pyridin-2-yl)-1,4,6,7-tetrahydro-5H-imidazo[4,5-c]pyridin-5-yl)(5-(1-methyl-1H-pyrazol-4-yl)-1,3,4-oxadiazol-2-yl)methanone], the AC50 was more than 5000 nM.

For the molecule `O=C(c1nnc(-c2cnn(C(F)F)c2)o1)N1CCc2[nH]cnc2[C@H]1c1cc2c(C3CC3)cccn2n1` [Example 1878, (S)-(4-(4-cyclopropylpyrazolo[1,5-a]pyridin-2-yl)-1,4,6,7-tetrahydro-5H-imidazo[4,5-c]pyridin-5-yl)(5-(1-(difluoromethyl)-1H-pyrazol-4-yl)-1,3,4-oxadiazol-2-yl)methanone], the half-maximal activity concentration (AC50) was in the range of 500 to 1000 nM.

With `O=C(c1nnc(-c2ccn(C(F)(F)F)n2)o1)N1CCc2[nH]cnc2[C@H]1c1cc2c(C3CC3)cccn2n1` [Example 1880, (S)-(4-(4-cyclopropylpyrazolo[1,5-a]pyridin-2-yl)-1,4,6,7-tetrahydro-5H-imidazo[4,5-c]pyridin-5-yl)(5-(1-(trifluoromethyl)-1H-pyrazol-3-yl)-1,3,4-oxadiazol-2-yl)methanone], the concentration at half-maximal activity (AC50) is less than 500 nM.

Consider `O=C(c1nnc(-c2ccn(C(F)(F)F)n2)o1)N1CCc2[nH]cnc2[C@@H]1c1cc2c(C3CC3)cccn2n1` [Example 1881, (R)-(4-(4-cyclopropylpyrazolo[1,5-a]pyridin-2-yl)-1,4,6,7-tetrahydro-5H-imidazo[4,5-c]pyridin-5-yl)(5-(1-(trifluoromethyl)-1H-pyrazol-3-yl)-1,3,4-oxadiazol-2-yl)methanone], for which the AC50 was more than 5000 nM.

With `CC(C)c1cccn2nc([C@@H]3c4nc[nH]c4CCN3C(=O)c3nnc(C4CC4)o3)cc12` [Example 1882, (S)-(5-cyclopropyl-1,3,4-oxadiazol-2-yl)(4-(4-isopropylpyrazolo[1,5-a]pyridin-2-yl)-1,4,6,7-tetrahydro-5H-imidazo[4,5-c]pyridin-5-yl)methanone], the AC50 is less than 500 nM.

As for `CC(C)c1cccn2nc([C@@H]3c4nc[nH]c4CCN3C(=O)c3nnc(C(C)(C)F)o3)cc12` [Example 1884, (S)-(5-(2-fluoropropan-2-yl)-1,3,4-oxadiazol-2-yl)(4-(4-isopropylpyrazolo[1,5-a]pyridin-2-yl)-1,4,6,7-tetrahydro-5H-imidazo[4,5-c]pyridin-5-yl)methanone], the AC50 is less than 500 nM.

`CC(C)c1cccn2nc([C@H]3c4nc[nH]c4CCN3C(=O)c3nnc(C(C)(C)F)o3)cc12` [Example 1885, (R)-(5-(2-fluoropropan-2-yl)-1,3,4-oxadiazol-2-yl)(4-(4-isopropylpyrazolo[1,5-a]pyridin-2-yl)-1,4,6,7-tetrahydro-5H-imidazo[4,5-c]pyridin-5-yl)methanone]: the AC50 is more than 5000 nM.

For `CC(C)c1cccn2nc([C@@H]3c4nc[nH]c4CCN3C(=O)c3nnc(-c4cnn(C)c4)o3)cc12` [Example 1886, (S)-(4-(4-isopropylpyrazolo[1,5-a]pyridin-2-yl)-1,4,6,7-tetrahydro-5H-imidazo[4,5-c]pyridin-5-yl)(5-(1-methyl-1H-pyrazol-4-yl)-1,3,4-oxadiazol-2-yl)methanone], the AC50 was less than 500 nM.

Regarding `CC(C)c1cccn2nc([C@H]3c4nc[nH]c4CCN3C(=O)c3nnc(-c4cnn(C)c4)o3)cc12` [Example 1887, (R)-(4-(4-isopropylpyrazolo[1,5-a]pyridin-2-yl)-1,4,6,7-tetrahydro-5H-imidazo[4,5-c]pyridin-5-yl)(5-(1-methyl-1H-pyrazol-4-yl)-1,3,4-oxadiazol-2-yl)methanone], the half-maximal activity concentration (AC50) is more than 5000 nM.

As for `Cn1ccc(-c2nnc(C(=O)N3CCc4[nH]cnc4[C@H]3c3cc4c(Br)cccn4n3)o2)n1` [Example 1889, (S)-(4-(4-bromopyrazolo[1,5-a]pyridin-2-yl)-1,4,6,7-tetrahydro-5H-imidazo[4,5-c]pyridin-5-yl)(5-(1-methyl-1H-pyrazol-3-yl)-1,3,4-oxadiazol-2-yl)methanone], the AC50 is less than 500 nM.

As for `Cc1cccn2nc([C@@H]3c4nc[nH]c4CCN3c3nnc(-c4ccc(F)cc4)o3)cc12` [Example 1891, (S)-2-(4-fluorophenyl)-5-(4-(4-methylpyrazolo[1,5-a]pyridin-2-yl)-1,4,6,7-tetrahydro-5H-imidazo[4,5-c]pyridin-5-yl)-1,3,4-oxadiazole], the AC50 was less than 500 nM.

On to `Fc1ccc(-c2nnc(N3CCc4[nH]cnc4[C@H]3c3cc4c(C(F)(F)F)cccn4n3)o2)cc1` [Example 1893, (S)-2-(4-fluorophenyl)-5-(4-(4-(trifluoromethyl)pyrazolo[1,5-a]pyridin-2-yl)-1,4,6,7-tetrahydro-5H-imidazo[4,5-c]pyridin-5-yl)-1,3,4-oxadiazole], for which the AC50 is less than 500 nM.

For the molecule `CCc1cccn2nc([C@H]3c4nc[nH]c4CCN3C(=O)c3nnc(-c4ccccn4)o3)cc12` [Example 1894, (R)-(4-(4-ethylpyrazolo[1,5-a]pyridin-2-yl)-1,4,6,7-tetrahydro-5H-imidazo[4,5-c]pyridin-5-yl)(5-(pyridin-2-yl)-1,3,4-oxadiazol-2-yl)methanone], the AC50 was more than 5000 nM.

Consider `O=C(c1nnc(-c2ccccn2)o1)N1CCc2[nH]cnc2[C@@H]1c1cc2c(C3CC3)cccn2n1` [Example 1896, (R)-(4-(4-cyclopropylpyrazolo[1,5-a]pyridin-2-yl)-1,4,6,7-tetrahydro-5H-imidazo[4,5-c]pyridin-5-yl)(5-(pyridin-2-yl)-1,3,4-oxadiazol-2-yl)methanone], for which the AC50 is more than 5000 nM.

As to `Cc1c(-c2nnc(C(=O)N3CCc4[nH]cnc4[C@H]3c3cc4c(C5CC5)cccn4n3)o2)cnn1C` [Example 1898, (S)-(4-(4-cyclopropylpyrazolo[1,5-a]pyridin-2-yl)-1,4,6,7-tetrahydro-5H-imidazo[4,5-c]pyridin-5-yl)(5-(1,5-dimethyl-1H-pyrazol-4-yl)-1,3,4-oxadiazol-2-yl)methanone], the AC50 is less than 500 nM.

Take `Cc1c(-c2nnc(C(=O)N3CCc4[nH]cnc4[C@@H]3c3cc4c(C5CC5)cccn4n3)o2)cnn1C` [Example 1899, (R)-(4-(4-cyclopropylpyrazolo[1,5-a]pyridin-2-yl)-1,4,6,7-tetrahydro-5H-imidazo[4,5-c]pyridin-5-yl)(5-(1,5-dimethyl-1H-pyrazol-4-yl)-1,3,4-oxadiazol-2-yl)methanone]: the AC50 was 1000 to 5000 nM.

The record behind these values is patent US20230365592A1 (Agios Pharmaceuticals, Inc., priority 2022, published 2023).
